Assay results taken from US20110143948A1, “MOLECULAR SIGNATURES AND BIOMARKERS ASSOCIATED WITH MELANOMA AND METHODS OF USE THEREOF” (priority 2008, published 2011).

Tested on: ncRNAs (SEQ ID NO 28-89)
Experiment: ncRNA arrays of melanocytes, keratinocytes, normal skin, melanoma cell lines and patient samples
Parameters: species or system human
Conditions: for ncRNA array expression, patient 2: melanoma patient 2 sample compared to normal skin; for ncRNA array expression, patient 3: melanoma patient 3 sample compared to normal skin; for ncRNA array expression, patient 4: melanoma patient 4 sample compared to normal skin; for ncRNA array expression, patient 5: melanoma patient 5 sample compared to normal skin; for ncRNA array expression, patient 6: melanoma patient 6 sample compared to normal skin; for ncRNA array expression, patient 7: melanoma patient 7 sample compared to normal skin; for ncRNA array expression, patient 8: melanoma patient 8 sample compared to normal skin; for ncRNA array expression, patient 9: melanoma patient 9 sample compared to normal skin; for ncRNA array expression, patient 10: melanoma patient 10 sample compared to normal skin; for ncRNA array expression, patient 19: melanoma patient 19 sample compared to normal skin; for ncRNA array expression, patient 20: melanoma patient 20 sample compared to normal skin; for ncRNA array expression, patient 21: melanoma patient 21 sample compared to normal skin; for ncRNA array expression, patient 22: melanoma patient 22 sample compared to normal skin; for ncRNA array expression, patient 23: melanoma patient 23 sample compared to normal skin; for ncRNA array expression, patient 24: melanoma patient 24 sample compared to normal skin; for ncRNA array expression, patient 25: melanoma patient 25 sample compared to normal skin; for ncRNA array expression, patient 26: melanoma patient 26 sample compared to normal skin; for ncRNA array expression, patient 27: melanoma patient 27 sample compared to normal skin; for ncRNA array expression, patient 28: melanoma patient 28 sample compared to normal skin; for ncRNA array expression, patient 29: melanoma patient 29 sample compared to normal skin; for ncRNA array expression, patient 30: melanoma patient 30 sample compared to normal skin
Outline: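 Total RNA from melanocytes, keratinocytes, normal human skin, melanoma cell lines and melanoma patient samples was profiled on an array of >10,000 putative (>200 nt) human and mouse ncRNAs plus RefSeq mRNA probes. Expression was compared with melanocytes or normal skin, keratinocyte signatures were subtracted, and hits were validated by qRT-PCR and Northern blot.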

Substance	ncRNA array expression, patient 2	ncRNA array expression, patient 3	ncRNA array expression, patient 4	ncRNA array expression, patient 5	ncRNA array expression, patient 6	ncRNA array expression, patient 7	ncRNA array expression, patient 8	ncRNA array expression, patient 9	ncRNA array expression, patient 10	ncRNA array expression, patient 19	ncRNA array expression, patient 20	ncRNA array expression, patient 21	ncRNA array expression, patient 22	ncRNA array expression, patient 23	ncRNA array expression, patient 24	ncRNA array expression, patient 25	ncRNA array expression, patient 26	ncRNA array expression, patient 27	ncRNA array expression, patient 28	ncRNA array expression, patient 29	further results
SEQ ID NO 48 (ACTTATATTCAGAGCATGTGGATTGGGACTCTGAAGAACAACTTTATGGTGGACACCTTC; listed as DNA, chemistry not given here; listed as Homo sapiens)	0.9515	3.672	3.353	0.2362	−0.1733	0.648	3.309	−0.2759	2.286	3.38	1.713	1.144	−0.4681	−0.4589	2.492	4.7	2.981	4.712	0.2102	0.1927	ncRNA array expression, patient 30: −0.334
SEQ ID NO 49 (CGATGGCTTGTCATTGTCCCCTGTCCTGGAACAATAAAGCAAGTGCCTTGTGGTCTCACT; listed as DNA, chemistry not given here; listed as Homo sapiens)	−3.131	−1.901	−2.3226	−1.9036	0.7986	−1.477	−1.974	−2.214	−4.429	−2.094	−2.123	−2.207	−2.118	−1.787	−1.642	−2.472	−3.037	−2.447	−2.621	−2.39	ncRNA array expression, patient 30: −0.9259
SEQ ID NO 50 (GTTATTATAACCAATGCAGACTTTAAAATCCCACCTGGACATCGGGTGAGAGGAGGAGGG; listed as DNA, chemistry not given here; listed as Homo sapiens)	−2.415	−1.962	−2.102	−1.782	−1.159	−1.978	−1.68	−2.03	−1.537	−0.5347	−1.776	−1.854	−1.427	−0.1575	−1.434	−1.804	−1.952	−1.707	−1.738	−2.317	ncRNA array expression, patient 30: −0.3312
SEQ ID NO 51 (ATGTATTTTAGGTAATAAGATTTTTATCAATTGTGTCTTTTTCTTTCTTTGCTTTCTATA; listed as DNA, chemistry not given here; listed as Homo sapiens)	0.8922	2.683	2.264	1.042	1.115	1.14	2.048	0.7789	0.8572	0.7228	1.113	1.298	0.5543	0.1918	1.761	2.552	1.145	1.166	0.879	0.7193	ncRNA array expression, patient 30: −0.4325
SEQ ID NO 52 (TTTTCTTAGTCTTTTTACTTTTTCCATTATATTCTTTGATATATTTGAGAAAATGGCTTG; listed as DNA, chemistry not given here; listed as Homo sapiens)	2.853	1.986	3.663	1.552	0.7809	0.9779	2.426	0.8678	0.7332	0.9835	−0.5729	0.7286	−0.2277	−0.706	−0.4016	3.265	3.428	0.4479	2.064	1.478	ncRNA array expression, patient 30: −0.5811
SEQ ID NO 53 (ATATATTTAGATAGTACTATGTTTCGTTTTCTTCCGATTTCAGGGATCCTTTTGTCTTAC; listed as DNA, chemistry not given here; listed as Homo sapiens)	−2.867	−2.306	−2.08	−2.02	−1.882	−2.068	−1.878	−2.195	−3.16	−2.319	−1.903	−2.124	−2.7031	−3.175	−1.827	−2.864	−3.105	−2.542	−1.905	−2.948	ncRNA array expression, patient 30: −3.05
SEQ ID NO 54 (TTTTTTTTCTTGTCCTATTACAACATTTTATAACCTTATGAATCAATGGATACTTTTATT; listed as DNA, chemistry not given here; listed as Homo sapiens)	0.357	2.627	3.179	0.2547	0.568	1.3	1.144	−0.1401	0.4363	3.034	1.876	1.299	−0.2466	0.7631	2.124	3.287	2.689	4.17	1.501	−0.1851	ncRNA array expression, patient 30: −0.1125
SEQ ID NO 55 (CCTCTCCCCTTCTTGCAAAAAATATTCTATATTCAAGTTTAGGAGAAAACAGAATACTTG; listed as DNA, chemistry not given here; listed as Homo sapiens)	−1.54	−1.638	−1.747	−1.565	−1.135	−1.9789	−1.065	−2.029	−1.191	−1.029	−1.812	−2.321	−1.439	−1.275	−1.478	−2.11	−2.186	−2.019	−2.043	−2.155	ncRNA array expression, patient 30: −0.5021
